Legend:
AP-1 = assay: PMA-induced AP-1 luciferase expression in HEK cells; format: cell-based; details: luciferase in HEK/AP-1 cells, as described in Example 398; for inhibition at 1 µM: AP1, 1 uM
carageenan-induced edema = assay: Carrageenan-induced rat paw edema test (anti-inflammatory activity); format: in vivo, Sprague-Dawley rats
Method in brief: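 Edema was raised by sub-plantar injection of 1% carrageenan into the right hind paw, 1 h after dosing 18 h-fasted male/female Sprague-Dawley rats (150-250 g) with 50 mg/kg p.o. in 0.1% CMC. Swelling was measured by displacement 3 h later and expressed as % protection against saline control.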

NF-κB = assay: TNF-α-induced NF-κB-dependent luciferase expression in HEK cells; format: cell-based; details: luciferase in HEK/NF-κB cells, as described in Example 398; for inhibition at 1 µM: Homo sapiens, HEK293, 1 uM, read-out: NFkB inhibition @ 1 uM
[1] = Rattus norvegicus, po, 3 h, rat paw edema, 50 mg/kg, reading 3 hours after carrageenan; [(Control−Test)/Control]×100%; read-out: % Protection P
[2] = rat paw edema, 50 mg/kg, reading 3 hours after carrageenan; [(Control−Test)/Control]×100%
[3] = rat paw edema, 50 mg/kg, reading 3 hours after carrageenan; [(Control−Test)/Control]×100%; 50 mg/kg

| SMILES | inhibition at 1 µM (AP-1) [%] | inhibition in vivo at 50 mg/kg (carageenan-induced edema; [1]) [%] | inhibition at 1 µM (NF-κB) [%] | AP-1 inhibition @ 1 uM (AP-1) | % Protection P (carageenan-induced edema; [2]) [%] | NFkB inhibition @ 1 uM (NF-κB) | % Protection P (carageenan-induced edema; [3]) [%] |
| --- | --- | --- | --- | --- | --- | --- | --- |
| COc1c(C)cc(C(=O)c2cc(-c3ccc(NC(C)=O)cc3)c(N3CCOCC3)s2)nc1C [Example 64, N-{4-[5-(5-Methoxy-4,6-dimethyl-pyridine-2-carbonyl)2-morpholin-4-yl-thiophene-3-yl]-phenyl}-acetamide] | 26.2 | 49 | -4.95 | – | – | – | – |
| CC(=O)c1ccc(-c2cc(-c3nc4ccccc4c(=O)n3-c3ccc(Cl)cc3)sc2N2CCOCC2)cc1 [Example 315, 2-[4-(4-Acetyl-phenyl)-5-morpholin-4-yl-thiophene-2-yl]-3-(4-chloro-phenyl)-3H-quinazolin-4-one] | 7 | 51 | 0 | – | – | – | – |
| Cc1ccc(C(=O)c2cc(-c3ccncc3)c(N3CCOCC3)s2)cc1 [Example 103, (5-Morpholin-4-yl-4-pyridin-4-yl-thiophene-2-yl)-p-tolyl-methanone] | 4.35 | -30.8 | 10.3 | – | – | – | – |
| O=C(c1cccnc1)c1sc(N2CCN(C(=O)c3ccco3)CC2)nc1-c1ccccc1 [Example 386, {2-[4-(Furan-2-carbonyl)-piperazin-1-yl]-4-phenyl-thiazol-5-yl}-pyridin-3-yl-methanone] | 22.5 | 23 | 52.8 | – | – | – | – |
| O=C(c1ccc(Cl)cc1Cl)c1sc(N2CCN(C(=O)c3ccco3)CC2)nc1-c1ccccc1 [Example 384, (2,4-Dichloro-phenyl)-{2-[4-(furan-2-carbonyl)-piperazin-1-yl]-4-phenyl-thiazol-5-yl}-methanone] | 42.5 | 71.6 | -1.4 | – | – | – | – |
| CC(=O)c1ccc(-n2c(-c3cc(-c4ccc(S(C)(=O)=O)cc4)c(N4CCOCC4)s3)nc3ccccc3c2=O)cc1 [Example 317, 2-[4-(4-Methanesulphonyl-phenyl)-5-morpholin-4-yl-thiophen-2-yl]-3-(4-acetyl-phenyl)-3H-quinazolin-4-one] | 31 | 73 | 46 | – | – | – | – |
| CS(=O)(=O)c1ccc(C(=O)c2cc(-c3cccnc3)c(N3CCOCC3)s2)cc1 [Example 96, (4-Methylsulfonyl-phenyl)-(5-morpholin-4-yl-4-pyridin-3-yl-thiophen-2-yl)-methanone] | 37.7 | 46.8 | -12.9 | – | – | – | – |
| COc1ccc(C(=O)c2cc(-c3ccc(S(C)(=O)=O)cc3)c(N3CCOCC3)s2)cc1 [Example 56, [4-(4-Methanesulfonyl-phenyl)-5-morpholin-4-yl-thiophene-2-yl]-(4-methoxy-phenyl)-methanone] | 76.1 | 77.8 | 18.1 | – | – | – | – |
| COc1cccc(-n2c(-c3cc(-c4ccc(S(C)(=O)=O)cc4)c(N4CCOCC4)s3)nc3ccccc3c2=O)c1 [Example 300, 2-[4-(4-Methanesulphonyl-phenyl)-5-morpholin-4-yl-thiophen-2-yl]-3-(3-methoxy-phenyl)-3H-quinazolin-4-one] | -4 | 48 | 20 | – | – | – | – |
| CSc1ccc(-c2cc(-c3nc4ccccc4c(=O)n3-c3ccccc3C)sc2N2CCOCC2)cc1 [Example 282, 2-[4-(4-Methylsulfanylphenyl)-5-morpholin-4-yl-thiophen-2-yl]-3-0-tolyl-3H-quinazolin-4-one] | – | – | – | −18 | 51 | 53 | – |
| Cc1c(OCC(F)(F)F)ccnc1-c1sc(Nc2ccccc2)nc1N [Example 331, 5-[3-Methyl-4-(2,2,2-trifluoro-ethoxy)-pyridin-2-yl]-N2-phenyl-thiazole-2,4-diamine] | 27.4 | 62.3 | -10.6 | – | – | – | – |
| O=C(c1cccnc1)c1sc(N2CCN(C(=O)c3ccco3)CC2)nc1-c1ccco1 [Example 376, {2-[4-(Furan-2-carbonyl)-piperazin-1-yl]-4-furan-2-yl-thiazol-5-yl}-pyridin-3-yl-methanone] | 45.9 | 33 | -14.1 | – | – | – | – |
| O=C(c1cc(-c2ccc(Cl)cc2)c(N2CCOCC2)s1)c1ccc(Cl)cc1Cl [Example 82, [4-(4-Chloro-phenyl)-5-morpholin-4-yl-thiophen-2-yl]-(2,4-dichloro-phenyl)-methanone] | 34.3 | 22.8 | 0.6 | – | – | – | – |
| COc1ccc(Nc2nc(N)c(C(=O)c3ccc(Cl)cc3Cl)s2)cc1 [Example 346, ([4-Amino-2-(4-methoxy-phenylamino)-thiazol-5-yl]-(2,4-dichloro-phenyl)-methanone)] | 64.6 | 28.3 | -4.13 | – | – | – | – |
| COc1ccc(C(=O)c2cc(-c3ccccc3)c(N3CCOCC3)s2)cc1 [Example 44, (4-Methoxy-phenyl)-(5-morpholin-4-yl-4-phenyl-thiophene-2-yl)-methanone] | 55.4 | 66.7 | 14.9 | – | – | – | – |
| CSc1ccc(C(=O)c2cc(-c3cccnc3)c(N3CCOCC3)s2)cc1 [Example 95, (4-Methylsulfanyl-phenyl)-(5-morpholin-4-yl-4-pyridin-3-yl-thiophen-2-yl)-methanone] | – | – | – | 64.02 | – | 11.24 | 42.44 |
| O=c1c2ccccc2nc(-c2cc(-c3ccncc3)c(N3CCOCC3)s2)n1-c1ccccc1Cl [Example 308, 3-(2-Chloro-phenyl)-2-(5-morpholin-4-yl-4-pyridin-4-yl-thiophen-2-yl)-3H-quinazolin-4-one] | 35 | 43 | 80 | – | – | – | – |
| CS(=O)(=O)c1ccc(C(=O)c2sc(N3CCN(C(=O)c4ccco4)CC3)nc2-c2ccco2)cc1 [Example 375, {2-[4-(Furan-2-carbonyl)-piperazin-1-yl]-4-furan-2-yl-thiazol-5-yl}-(4-methanesulfonyl-phenyl)-methanone] | 22.1 | 49 | -13.2 | – | – | – | – |
| CC(=O)Nc1ccc(-c2cc(C(=O)c3ccccc3)sc2N2CCOCC2)cc1 [Example 66, N-[4-(5-Benzoyl-2-morpholin-4yl-thiophene-3-yl)-phenyl]-acetamide] | -2.98 | 40 | 24.2 | – | – | – | – |
| COc1ccc(C(=O)c2sc(Nc3ccccc3)nc2NC(=O)Nc2ccc(F)cc2)cc1 [Example 117, 1-(4-Fluoro-phenyl)-3-[5-(4-methoxy-benzoyl)-2-phenylamino-thiazol-4-yl]-urea] | 51 | – | 22.1 | – | – | – | 58.62 |
| O=c1c2ccccc2nc(-c2cc(-c3ccncc3)c(N3CCOCC3)s2)n1-c1ccc(Cl)cc1 [Example 313, 3-(4-Chloro-phenyl)-2-(5-morpholin-4-yl-4-pyridin-4-yl-thiophen-2-yl)-3H-quinazolin-4-one] | 32 | 52 | 68 | – | – | – | – |
| COc1c(C)cc(-c2cc(-c3ccc(S(C)(=O)=O)cc3)c(N3CCOCC3)s2)nc1C [Example 52, 4-[3-(4-Methanesulfonyl-phenyl)-5-(5-methoxy-4,6-dimethyl-pyridine-2-yl)-thiophene-2-yl]-morpholine] | -7.93 | 61.1 | 5.81 | – | – | – | – |
| O=C(c1ccccn1)c1sc(N2CCN(C(=O)c3ccco3)CC2)nc1-c1ccccc1 [Example 390, {2-[4-(Furan-2-carbonyl)-piperazin-1-yl]-4-phenyl-thiazol-5-yl}-pyridin-2-yl-methanone] | 40.9 | 17 | 0.47 | – | – | – | – |
| Cc1ccc(C(=O)c2cc(-c3ccccc3)c(N3CCOCC3)s2)cc1 [Example 43, (5-Morpholin-4-yl-4-phenyl-thiophen-2-yl)-p-tolyl-methanone] | 27.3 | 5.33 | -15.3 | – | – | – | – |
| CC(=O)c1ccc(-n2c(-c3cc(-c4ccccc4)c(N4CCOCC4)s3)nc3ccccc3c2=O)cc1 [Example 314] | – | – | – | 25 | 36 | 0 | – |
| Cc1cccc(-n2c(-c3cc(-c4ccncc4)c(N4CCOCC4)s3)nc3ccccc3c2=O)c1 [Example 289, 2-(5-Morpholin-4-yl-4-pyridin-4-yl-thiophen-2-yl)-3-m-tolyl-3H-quinazolin-4-one] | 35 | 30 | 42 | – | – | – | – |
| CS(=O)(=O)c1ccc(-c2cc(-c3nc4ccccc4c(=O)n3-c3ccccc3)sc2N2CCOCC2)cc1 [Example 275, 2-[4-(4-Methanesulfonyl-phenyl)-5-morpholin-4-yl-thiophen-2-yl]-3-phenyl-3H-quinazolin-4-one] | 28 | 25 | 9 | – | – | – | – |
| COC(=O)Nc1nc(Cc2ccccc2)c(C(=O)c2sc(NC(=O)OC)nc2Cc2ccccc2)s1 [Example 137, Dimethyl[carbonyl-bis(4-benzyl-1,3-thiazole-5,2-diyl)]biscarbamate] | 51.3 | 47.2 | 7.69 | – | – | – | – |

Reference: patent US8829014B2, “Thiazole and thiophene analogues, and their use in treating autoimmune diseases and cancers” (Board of Supervisors of Louisiana State University and …, priority 2006, dated 2014)
